Measured values reported in patent EP0044212B1, “Herbicidal o-alkylsulfonyloxy- and o-alkylsulfonylamino-benzenesulfonamides” (E.I. DU PONT DE NEMOURS AND COMPANY, priority 1980, dated 1982).

Legend:
[1] = system: Barley; assay: Test D pre-/post-emergence weed control in cereals; type: in vivo, Hordeum vulgarel; details: 20 days
Excerpt: (§1) Two ten-inch in diameter plastic pans lined with polyethylene liners were filled with prepared Fallsington slit loam soil. One pan was planted with seeds of wheat (Triticum aestivum), barley (Hordeum vulgarel, wild oats (Avena fatua), downy brome (Bromus tectorum), cheatgrass (Bromus secalinus), blackgrass (Alopecurus myosuroides), annual bluegrass (Poa annual, green foxtail (Setaria viridis), quack grass (Agropyron repens), Italian ryegrass (Lolium multiflorum) and ripgut brome (Bromus rigidus). The other pan was planted with seeds of Russian thistle (Salsola kali), tansy mustard (Descuraina pinnata), smartweed (Polygonum pensylvanicum), tumble mustard (Sisymbrium altissium) kochia (Kochia scoparia), shepherd's purse (Capsella bursa-pastoris), Matricaria inodora, black nightshade (Solanum nigrum), yellow rocket (Barbarea vulgaris), wild mustard (Brassica kaber) and wild buckwheat (Polygonum convolvulus). The above two pans were treated pre-emergence. At the same time two pans in which the above plant species were growing were treated post-emergence. Plant height at the time of treatment ranged from 1-15 cm depending on plant species.
(§2) The compounds applied were diluted with a non-phytotoxic solvent and sprayed over-the-top of the pans. An untreated control and a solvent alone control were included for comparison. All treatments were maintained in the greenhouse for 20 days at which time the treatments were compared to the controls and the effects visually rated. The recorded data, presented in Table D, indicate that certain compounds from within the scope of the invention have utility for pre- and/or post-emergence weed control in cereal crops such as wheat and barley.

[2] = system: Downy Brome; assay: Test D pre-/post-emergence weed control in cereals; type: in vivo, Bromus tectorum; details: 20 days
Excerpt: as §1, §2

[3] = system: Green Foxtail; assay: Test D pre-/post-emergence weed control in cereals; type: in vivo, Setaria viridis; details: 20 days
Excerpt: as §1, §2

[4] = system: Quackgrass; assay: Test D pre-/post-emergence weed control in cereals; type: in vivo, Agropyron repens; details: 20 days
Excerpt: as §1, §2

[5] = system: Italian Ryegrass; assay: Test D pre-/post-emergence weed control in cereals; type: in vivo, Lolium multiflorum; details: 20 days
Excerpt: as §1, §2

[6] = system: Ripgut Brome; assay: Test D pre-/post-emergence weed control in cereals; type: in vivo, Bromus rigidus; details: 20 days
Excerpt: as §1, §2

[7] = system: Russian Thistle; assay: Test D pre-/post-emergence weed control in cereals; type: in vivo, Salsola kali; details: 20 days
Excerpt: as §1, §2

[8] = system: Tansy Mustard; assay: Test D pre-/post-emergence weed control in cereals; type: in vivo, Descuraina pinnata; details: Pre-Emergence; 0.015 kg/ha; 20 days
Excerpt: as §1, with “Plant height at the time of treatment ranged from 1-15 cm depending on plant species.” left out
(§3) The compounds applied were diluted with a non-phytotoxic solvent and sprayed over-the-top of the pans. […] The recorded data, presented in Table D, indicate that certain compounds from within the scope of the invention have utility for pre- and/or post-emergence weed control in cereal crops such as wheat and barley.

[9] = system: Tumble Mustard; assay: Test D pre-/post-emergence weed control in cereals; type: in vivo, Sisymbrium altissium; details: 20 days
Excerpt: as §1, §2

[10] = system: Black Nightshade; assay: Test D pre-/post-emergence weed control in cereals; type: in vivo, Solanum nigrum; details: 0.015 kg/ha, 20 days
Excerpt: as §1, with “Plant height at the time of treatment ranged from 1-15 cm depending on plant species.” left out
as §3

[11] = system: Yellow Rocket; assay: Test D pre-/post-emergence weed control in cereals; type: in vivo, Barbarea vulgaris; details: 0.06 kg/ha, 20 days
Excerpt: as §1, with “Plant height at the time of treatment ranged from 1-15 cm depending on plant species.” left out
as §3

[12] = system: Wild Mustard; assay: Test D pre-/post-emergence weed control in cereals; type: in vivo, Brassica kaber; details: 20 days
Excerpt: as §1, §2

[13] = system: Arrowhead; assay: Test E application to paddy water after transplanting of rice; type: in vivo, Sagittaria spp.
Excerpt: Test samples were formulated and applied directly to the paddy water three days after transplanting of rice. The test was maintained in a greenhouse, and plant response ratings were taken at the stated intervals after application.

[14] = system: rice and corn; assay: Crop selectivity statement (greenhouse tests); type: in vivo; details: summary statement
Excerpt: (§4) The activity of the compounds of formula I was investigated in a number of greenhouse tests.

[15] = system: Soybean; assay: Test C pre-emergence on Fallsington silt loam soil; type: in vivo, soybeans; details: 0.03 kg/ha, 28 days
Excerpt: (§5) The high herbicidal activity of two of the compounds from within the scope of the invention is evident from the results obtained in this test. The experiment concerned pre-emergence applications on soil. The containers used were 25 cm diameter plastic pots filled with Fallsington silt loam. One set of pots was planted to weeds, the seeds of which were uniformly mixed with the top 1.2 cm layer of soil. The species selected were: johnsongrass (Sorghum halepense), barnyardgrass (Echinochloa crusgalli), crabgrass (Digitaria sanguinalis), giant foxtail (Setaria faberii), velvetleaf (Abutilon theophrasti), jimsonweed (Datura stramonium), mustard (Brassica arvensis), and pigweed (Amaranthus retroflexus). Another set of pots were planted to the following crops with from one to four species per pot: corn (planting depth 3.7 cm), cotton, soybeans, sunflower, Clinton oats, wheat, Black Valentine beans, rice, sorghum, peas, flax, and peanuts (all at 2.5 cm depth), cucumbers, cabbage, alfalfa, safflower, sugarbeets, tomato, spinach, barley, and Kentucky bluegrass (all at 1.2 cm depth). Immediately after planting, the test chemical was applied to the soil surfaces dissolved in a non-phytotoxic solvent. One pot from the weed phase and one of each of the crop species were left untreated for the purpose of comparison. […]

[16] = system: Broadleaves; assay: Test C pre-emergence on Fallsington silt loam soil; type: in vivo, velvetleaf, jimsonweed, mustard, pigweed; details: 28 days
Excerpt: as §5

[17] = system: Grasses; assay: Test C pre-emergence on Fallsington silt loam soil; type: in vivo, johnsongrass, barnyardgrass, crabgrass, giant foxtail; details: 28 days
Excerpt: The high herbicidal activity of two of the compounds from within the scope of the invention is evident from the results obtained in this test. The experiment concerned pre-emergence applications on soil. The containers used were 25 cm diameter plastic pots filled with Fallsington silt loam. One set of pots was planted to weeds, the seeds of which were uniformly mixed with the top 1.2 cm layer of soil. The species selected were: johnsongrass (Sorghum halepense), barnyardgrass (Echinochloa crusgalli), crabgrass (Digitaria sanguinalis), giant foxtail (Setaria faberii), velvetleaf (Abutilon theophrasti), jimsonweed (Datura stramonium), mustard (Brassica arvensis), and pigweed (Amaranthus retroflexus). Another set of pots were planted to the following crops with from one to four species per pot: corn (planting depth 3.7 cm), cotton, soybeans, sunflower, Clinton oats, wheat, Black Valentine beans, rice, sorghum, peas, flax, and peanuts (all at 2.5 cm depth), cucumbers, cabbage, alfalfa, safflower, sugarbeets, tomato, spinach, barley, and Kentucky bluegrass (all at 1.2 cm depth). Immediately after planting, the test chemical was applied to the soil surfaces dissolved in a non-phytotoxic solvent. One pot from the weed phase and one of each of the crop species were left untreated for the purpose of comparison. The treated and untreated pots were promptly watered with approximatley 4 mm of simultated rainfall and then held in a greenhouse for several weeks. Visual weed and crop response ratings were made 28 days after treatment utilizing the rating system as described above for Test A. The data are given in Table C.

[18] = system: Soybeans; assay: Test G broadleaf herbicidal properties, overall spray; type: in vivo, soybean; details: 0.015 kg/ha, 22 days after treatment
Procedure: Approximately 12 soybean plants were grown in a 25 cm. diameter plastic pot. In another pot of equal size the following broadleaf plant species were grown: sugarbeets, velvetleaf, Sesbania, Cassia, mustard, morningglory, alfalfa, jimsonweed, and cocklebur. The plant foliage and surrounding soil were treated with the test chemical dissolved in a non-phytotoxic solvent as an overall spray at the rate of 0.015 kg/ha, when the plants were 17 days old. Visual ratings of herbicidal effects were made 22 days after treatment utilizing the rating system described for Test A.

[19] = system: soybeams; assay: Crop selectivity statement (greenhouse tests); type: in vivo; details: summary statement
Excerpt: as §4

CCCS(=O)(=O)Oc1ccccc1S(=O)(=O)NC(=O)Nc1nc(OC)cc(OC)n1 [Compound 36, N-[(4,6-dimethoxypropimidin-2-yl)aminocarbonyl]-2-hydroxybenzenesulfonamide, 1-propanesulfonate]
5G: Tumble Mustard response rating ([9]; Pre-Emergence, 0.015 kg/ha)
0: Barley response rating ([1]; Post-Emergence, 0.015 kg/ha) | Barley response rating ([1]; Post-Emergence, 0.06 kg/ha) | Barley response rating ([1]; Pre-Emergence, 0.015 kg/ha) | Barley response rating ([1]; Pre-Emergence, 0.06 kg/ha) | Downy Brome response rating ([2]; Post-Emergence, 0.015 kg/ha) | Quackgrass response rating ([4]; Post-Emergence, 0.015 kg/ha) | Quackgrass response rating ([4]; Post-Emergence, 0.06 kg/ha) | Quackgrass response rating ([4]; Pre-Emergence, 0.015 kg/ha) | Italian Ryegrass response rating ([5]; Post-Emergence, 0.015 kg/ha) | Italian Ryegrass response rating ([5]; Post-Emergence, 0.06 kg/ha) | Ripgut Brome response rating ([6]; Post-Emergence, 0.015 kg/ha) | Russian Thistle response rating ([7]; Post-Emergence, 0.015 kg/ha) | Russian Thistle response rating ([7]; Pre-Emergence, 0.015 kg/ha) | Arrowhead*** 8 Weeks ([13]; 25 g/ha in paddy water) | Arrowhead*** 8 Weeks ([13]; 100 g/ha in paddy water)
6G: Downy Brome response rating ([2]; Pre-Emergence, 0.06 kg/ha)
3G: Downy Brome response rating ([2]; Post-Emergence, 0.06 kg/ha) | Downy Brome response rating ([2]; Pre-Emergence, 0.015 kg/ha) | Italian Ryegrass response rating ([5]; Pre-Emergence, 0.06 kg/ha)
2G: Green Foxtail response rating ([3]; Post-Emergence, 0.06 kg/ha) | Green Foxtail response rating ([3]; Pre-Emergence, 0.015 kg/ha) | Quackgrass response rating ([4]; Pre-Emergence, 0.06 kg/ha) | Ripgut Brome response rating ([6]; Post-Emergence, 0.06 kg/ha) | Ripgut Brome response rating ([6]; Pre-Emergence, 0.015 kg/ha) | Russian Thistle response rating ([7]; Post-Emergence, 0.06 kg/ha) | Tansy Mustard response rating [8] | Black Nightshade response rating ([10]; Post-Emergence)
1G: Green Foxtail response rating ([3]; Post-Emergence, 0.015 kg/ha) | Italian Ryegrass response rating ([5]; Pre-Emergence, 0.015 kg/ha) | Russian Thistle response rating ([7]; Pre-Emergence, 0.06 kg/ha)
shows selectivity on rice and corn: selectivity on rice and corn [14]
10C: Tumble Mustard response rating ([9]; Post-Emergence, 0.015 kg/ha) | Tumble Mustard response rating ([9]; Post-Emergence, 0.06 kg/ha) | Yellow Rocket response rating ([11]; Post-Emergence) | Yellow Rocket response rating ([11]; Pre-Emergence) | Wild Mustard response rating ([12]; Post-Emergence, 0.015 kg/ha) | Wild Mustard response rating ([12]; Post-Emergence, 0.06 kg/ha) | Wild Mustard response rating ([12]; Pre-Emergence, 0.06 kg/ha)
4G: Black Nightshade response rating ([10]; Pre-Emergence)

COc1cc(OC)nc(NC(=O)NS(=O)(=O)c2ccccc2OS(C)(=O)=O)n1 [Compound 1, N-[(4,6-Dimethoxypyrimidin-2-yl)aminocarbonyl]-2-hydroxybenzenesulfonamide, methanesulfonate]
3G: Broadleaves response rating ([16]; 0.0035 kg/ha)
0: Grasses response rating ([17]; 0.0035 kg/ha) | Grasses response rating ([17]; 0.0075 kg/ha)
2G: Grasses response rating ([17]; 0.015 kg/ha)
4G: Broadleaves response rating ([16]; 0.0075 kg/ha)
4G, 2lH: Soybean response rating [15]

CCCS(=O)(=O)Oc1ccccc1S(=O)(=O)NC(=O)Nc1nc(C)nc(OC)n1 [Compound 39, 2-hydroxy-N-[(4-methoxy-6-methyl-1,3,5-triazin-2-yl)aminocarbonyl]benzenesulfonamide, 1-propanesulfonate]
0: Soybeans response rating [18]
shows selectivity on soybeams: selectivity on soybeams [19]
